Assay [1] deals with Fibroblast growth factor receptor 3 (Homo sapiens) (UniProt P22607). The following applies: Compound concentration 20.0 uM, Protein concentration 2.0 uM, Result type QC Liability.
Description: Thermal Shift Assay. Domain: start/stop: P449-E759
Another assay deals with T1, Peregrin (Homo sapiens) (UniProt P55201).
T1 sequence (whole entry): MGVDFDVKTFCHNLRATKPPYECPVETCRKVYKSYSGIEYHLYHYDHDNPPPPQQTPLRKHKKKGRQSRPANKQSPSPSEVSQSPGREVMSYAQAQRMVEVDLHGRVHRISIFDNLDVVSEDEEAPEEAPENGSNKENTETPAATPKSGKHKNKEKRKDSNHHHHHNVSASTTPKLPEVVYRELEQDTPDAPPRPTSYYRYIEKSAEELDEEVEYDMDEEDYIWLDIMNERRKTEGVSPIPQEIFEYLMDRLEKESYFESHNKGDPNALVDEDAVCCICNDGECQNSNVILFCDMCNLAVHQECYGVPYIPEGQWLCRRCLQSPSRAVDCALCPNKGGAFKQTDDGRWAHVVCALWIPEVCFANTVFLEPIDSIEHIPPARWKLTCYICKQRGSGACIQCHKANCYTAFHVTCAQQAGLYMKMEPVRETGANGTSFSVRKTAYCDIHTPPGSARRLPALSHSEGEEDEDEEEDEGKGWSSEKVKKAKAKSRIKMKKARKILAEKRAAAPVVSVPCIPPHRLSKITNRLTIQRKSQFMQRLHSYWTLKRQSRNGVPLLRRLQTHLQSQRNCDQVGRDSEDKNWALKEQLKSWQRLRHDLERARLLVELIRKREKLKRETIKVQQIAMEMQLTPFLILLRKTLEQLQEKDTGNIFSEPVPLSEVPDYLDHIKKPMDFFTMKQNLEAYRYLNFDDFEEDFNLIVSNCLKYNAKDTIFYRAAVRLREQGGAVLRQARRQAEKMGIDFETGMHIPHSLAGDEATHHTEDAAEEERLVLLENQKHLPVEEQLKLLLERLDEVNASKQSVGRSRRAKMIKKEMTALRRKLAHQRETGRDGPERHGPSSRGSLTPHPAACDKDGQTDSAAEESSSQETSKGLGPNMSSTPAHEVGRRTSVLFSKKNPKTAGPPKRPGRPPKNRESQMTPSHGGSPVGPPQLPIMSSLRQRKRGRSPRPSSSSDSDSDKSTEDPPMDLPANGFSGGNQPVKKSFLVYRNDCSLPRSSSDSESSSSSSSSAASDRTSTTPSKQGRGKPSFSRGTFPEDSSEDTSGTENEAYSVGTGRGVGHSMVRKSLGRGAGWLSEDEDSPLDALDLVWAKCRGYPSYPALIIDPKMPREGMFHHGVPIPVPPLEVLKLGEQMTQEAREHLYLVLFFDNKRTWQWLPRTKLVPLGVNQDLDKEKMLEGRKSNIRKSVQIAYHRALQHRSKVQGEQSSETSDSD
Conditions: Compound concentration 20.0 uM, Protein concentration 2.0 uM, Result type QC Liability.

Fibroblast growth factor receptor 3 (Homo sapiens), sequence (P22607 23-806 limits assumed): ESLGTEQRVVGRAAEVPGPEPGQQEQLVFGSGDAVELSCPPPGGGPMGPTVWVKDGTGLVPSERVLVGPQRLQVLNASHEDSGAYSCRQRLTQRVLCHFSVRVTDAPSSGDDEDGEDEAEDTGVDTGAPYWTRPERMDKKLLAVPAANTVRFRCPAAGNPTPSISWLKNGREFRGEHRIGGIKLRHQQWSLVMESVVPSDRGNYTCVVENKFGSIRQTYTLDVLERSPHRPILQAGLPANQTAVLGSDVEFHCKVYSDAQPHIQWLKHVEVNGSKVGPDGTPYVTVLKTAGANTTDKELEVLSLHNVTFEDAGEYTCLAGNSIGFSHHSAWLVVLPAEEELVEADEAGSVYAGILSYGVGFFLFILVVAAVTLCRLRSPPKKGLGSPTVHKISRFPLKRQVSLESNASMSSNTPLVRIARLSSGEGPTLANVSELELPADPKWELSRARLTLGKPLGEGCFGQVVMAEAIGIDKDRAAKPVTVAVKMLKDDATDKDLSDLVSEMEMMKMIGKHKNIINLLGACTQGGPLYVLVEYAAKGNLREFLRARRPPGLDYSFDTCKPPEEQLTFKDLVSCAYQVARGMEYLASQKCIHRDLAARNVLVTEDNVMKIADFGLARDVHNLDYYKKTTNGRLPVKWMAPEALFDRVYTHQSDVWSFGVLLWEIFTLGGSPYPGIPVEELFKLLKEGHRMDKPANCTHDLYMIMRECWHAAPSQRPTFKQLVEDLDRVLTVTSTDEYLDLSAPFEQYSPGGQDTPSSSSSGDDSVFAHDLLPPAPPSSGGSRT

One may read the ΔTm as the shift of the melting midpoint relative to a reference. Consider `CCCCC(C)(O)C/C=C/[C@H]1[C@H](O)CC(=O)[C@@H]1CCCCCCC(=O)O` (stereo not given in full), for which the ΔTm in assay [1] is 0.43 °C; at Peregrin (Homo sapiens) it was -1.2 °C.
Regarding `CCCN1C(=O)c2ccc(Cl)cc2Nc2ncccc21`, the ΔTm is 1.35 °C in assay [1] and -3.34 °C at Peregrin (Homo sapiens).
On to `CN(C(=O)c1cnn2cccnc12)c1cc2c(cc1N1CCOCC1)C(=O)N(C[C@@H](F)C(C)(C)O)C2`, for which the values for the ΔTm (in assay [1]; on Peregrin (Homo sapiens)) were 1.38 °C and -1.49 °C, respectively.
Taken in the same sequence, the figures for `COc1cc(C)c(S(=O)(=O)N(C)CCC(=O)N[C@H]2CC[C@@H](N3CCC4CN(C)CC4C3)CC2)c(C)c1` (stereo not given in full) were 1.1 °C and -3.59 °C.
Turning to `Cc1cc2ncnn2cc1Nc1ncc2c(n1)n(C1CCOCC1)c(=O)n2C`, the figures for the ΔTm (in assay [1]; at Peregrin (Homo sapiens)) were 0.53 °C and -4.35 °C, respectively.
As to `COc1cc(C(N)=O)nc(-c2cccc(C#C[C@]3(O)CCN(C)C3=O)c2)c1`, the ΔTm in assay [1] was 0.48 °C; on Peregrin (Homo sapiens) it was -1.73 °C.
On to `O=C(O)Cc1ccc(CCNS(=O)(=O)c2ccc(Cl)cc2)cc1`, for which the ΔTm is 0.43 °C in assay [1] and -2.91 °C on Peregrin (Homo sapiens).
Take `CN(C)C(=O)c1cc2cnc(Nc3ccc(N4CCN(CCCCNC(=O)COc5cccc6c5C(=O)N(C5CCC(=O)NC5=O)C6=O)CC4)cn3)nc2n1C1CCCC1` (stereo not given): the ΔTm is 0.68 °C in assay [1] and -1.94 °C at Peregrin (Homo sapiens).
As to `Cc1ccc2c(N)c(C(=O)NC3CCc4cc(N5CC6CCC(C5)N6)ccc4C3)sc2n1` (stereo not given), the ΔTm is 0.55 °C in assay [1] and -1.37 °C at Peregrin (Homo sapiens).
On the same counts, the results for `CC[C@@H](CO)Nc1nc(Nc2cccc(NC(=O)C(C)(C)C)c2)ncc1F` are 2.58 °C and -1.26 °C.
Taken in the same sequence, the figures for `CNC(=O)c1c(F)cccc1Nc1nc(Nc2cc3c(cc2OC)CCN3C(=O)CN(C)C)nc2[nH]ccc12` were 0.2 °C and -2.03 °C.
With `CO[C@@H](C)CN1CC[C@]2(C)c3cc(O)ccc3C[C@H]1C2(C)C`, the ΔTm in assay [1] was 1.13 °C; on Peregrin (Homo sapiens), -3.01 °C.
As for `CC1CNCCc2c1nc1ccnn1c2N1CC(C(=O)N2CCC(C)(C)C2)C1` (stereo not given), the ΔTm in assay [1] is 0.56 °C; on Peregrin (Homo sapiens) it was -1.64 °C.
`COc1cc(C(=O)NCCOCCOCCOCC(=O)N[C@H](C(=O)N2C[C@H](O)C[C@H]2C(=O)NCc2ccc(-c3scnc3C)cc2)C(C)(C)C)ccc1Nc1ncc(C(F)(F)F)c(Oc2cccc3c2C(=O)CC3)n1`: the ΔTm is 1.52 °C in assay [1] and -0.82 °C on Peregrin (Homo sapiens).
As for `COc1ccc(COc2ccc(Cc3cnc(N)nc3N)cc2OC)cc1`, the ΔTm in assay [1] was 0.48 °C; at Peregrin (Homo sapiens) it was -1.34 °C.
Taken in the same sequence, the figures for `O=C1CCCc2[nH]c(-c3ccnc(NCC4CC4)c3)c(Nc3ccccc3)c21` were 0.77 °C and -3.57 °C.
On to `NCCCc1c(C(=O)O)[nH]c2ccc(C(=O)Nc3ccccc3)cc12`, for which the shift in melting temperature (ΔTm) was 0.79 °C in assay [1] and -1.68 °C at Peregrin (Homo sapiens).
Regarding `COc1ccc(Br)cc1S(=O)(=O)NC(=O)/C=C/c1cc(Cl)ccc1Cc1ccc2ccccc2c1`, the shift in melting temperature (ΔTm) is 0.7 °C in assay [1] and -10.6 °C at Peregrin (Homo sapiens).
For `CCN(C)S(=O)(=O)Nc1cccc(-c2ccc3c(NC(=O)C4CC4)n[nH]c3c2)c1`, the results for the ΔTm (in assay [1]; at Peregrin (Homo sapiens)) were 2.38 °C and -0.56 °C, respectively.
As for `C=CC(=O)N1CCC[C@@H](n2nc(-c3ccc(Oc4ccccc4)cc3)c3c(N)ncnc32)C1`, the ΔTm in assay [1] is -1.1 °C; at Peregrin (Homo sapiens), -1.17 °C.
As for `COc1cc(-c2cn[nH]c2)ccc1C(=O)Nc1ccc2c(c1)CCNCC2`, the ΔTm in assay [1] was found to be 0.93 °C; on Peregrin (Homo sapiens), 0.1 °C.
Taken in the same sequence, the figures for `CN(C1CCc2c(c3ccccc3n2CC(=O)O)C1)S(=O)(=O)c1ccc(F)cc1` (stereo not given) were 0.46 °C and -2.54 °C.
`N[C@H](C(=O)O)[C@@H]1CC(Cl)=NO1`: the ΔTm was 0.45 °C in assay [1] and -1.19 °C on Peregrin (Homo sapiens).
For the compound `CC1CCN(C(=O)[C@@H](CCn2cccc2C#N)NS(=O)(=O)c2cccc3[nH]ccc23)CC1`, the ΔTm in assay [1] was 0.36 °C; at Peregrin (Homo sapiens), -3.16 °C.
On the same counts, the results for `CC(=O)Nc1nc(CN2CCC[C@H](Cc3cc(C)nc(C)c3)C2)cs1` are 0.78 °C and -1.25 °C.
As for `Cc1sc(C(=O)c2cncnc2N[C@@H]2C[C@H](COS(N)(=O)=O)[C@@H](O)C2)cc1[C@@H]1NCCc2ccc(Cl)cc21`, the ΔTm in assay [1] is 0.36 °C; on Peregrin (Homo sapiens), -2.76 °C.
Consider `COc1cc(-c2cc([C@H](O)C3CC3)n3ncnc(N)c23)ccc1CO`, for which the ΔTm is 1.71 °C in assay [1] and -2.32 °C at Peregrin (Homo sapiens).
On the same counts, the results for `C[C@@H](CO)CCC[C@@H](C)[C@H]1CC[C@H]2[C@@H]3CC=C4C[C@@H](O)CC[C@]4(C)[C@H]3CC[C@]12C` are 0.9 °C and -1.97 °C.
In the case of `CCS(=O)(=O)Nc1cccc(Oc2cncc(Nc3ccc(I)cc3F)c2C(N)=O)c1`, the figures for the ΔTm (in assay [1]; on Peregrin (Homo sapiens)) were 1.17 °C and -2.79 °C, respectively.
For the compound `C[C@H](NC(=O)c1cnc2n1[C@](C)(Cc1ccc(C#N)cc1)C(=O)N2c1cc(Cl)c(F)c(Cl)c1)C(=O)NC1(c2ccccn2)CC1`, the ΔTm in assay [1] is 0.96 °C; at Peregrin (Homo sapiens), -0.27 °C.
Taken in the same sequence, the figures for `CCN1C(=O)C(c2cccc(C(=O)O)c2)C(=O)N(c2ccccc2)c2cc(C(F)(F)F)ccc21` (stereo not given) were 0.62 °C and -1.55 °C.
Consider `CNC(=O)COc1cc2cc(Nc3nc(N4CCC(C(=O)N(C)C)CC4)ncc3Cl)cc(OC)c2n(C)c1=O`, for which the thermal shift (ΔTm) in assay [1] was 0.39 °C; on Peregrin (Homo sapiens) it was -2.49 °C.
Taken in the same sequence, the figures for `COC(=O)c1sccc1S(=O)(=O)Nc1ccc(Nc2ccccc2)cc1OC` were 0.39 °C and -1.04 °C.
`Cc1ccc(-c2cn3nc(C(=O)NC4(c5ccc(F)cc5)CN(C)C4)c(C(C)C)c3c(=O)[nH]2)cc1C`: the ΔTm was 0.62 °C in assay [1] and -2.45 °C at Peregrin (Homo sapiens).
With `CC(C)(C)c1cc(NC(=O)c2csc(Nc3ccc(Cl)cc3)n2)no1`, the values for the ΔTm (in assay [1]; at Peregrin (Homo sapiens)) were 1.46 °C and -0.02 °C, respectively.
`Cc1cc2c(-c3ccco3)cnc(N[C@H]3CCN(C)C[C@@H]3C(=O)NC3CCCCC3)c2[nH]c1=O`: the ΔTm in assay [1] is 1 °C; on Peregrin (Homo sapiens), -1.73 °C.
As to `Cc1cn([C@@H](C)CC#N)c(=O)c2cc(Cn3nc(C(F)F)cc3Cl)nn12`, the values for the ΔTm (in assay [1]; at Peregrin (Homo sapiens)) were 0.93 °C and -1.08 °C, respectively.
As to `CCN1CCN(Cc2ccc(Nc3ncc(F)c(-c4cc(F)c5nc(C)n(C(C)C)c5c4)n3)nc2)CC1`, the ΔTm in assay [1] was 3.23 °C; on Peregrin (Homo sapiens), -1.26 °C.
As for `Cn1cc(NC(=O)c2ccc3nc4n(c3c2)CCCNC4=O)nc1C(=O)NC1CCCC1`, the ΔTm in assay [1] is 1.76 °C; at Peregrin (Homo sapiens) it was -0.88 °C.
On the same counts, the results for `CC(=O)N1CCC(c2ccc(C(=O)NC(=N)N)cc2C(F)(F)F)CC1` are 1.29 °C and -2.69 °C.
On the same counts, the results for `CNc1ncc2cc(-c3ccc(-c4ncccc4F)cc3Cl)c(=O)n(C[C@H]3OC[C@H](N)CO3)c2n1` are 2.03 °C and -1.11 °C.
Consider `CCn1ccc(Nc2ncc3c(n2)-c2c(nn(C)c2-c2ccc(-c4cnn(C)c4)cc2Cl)CC3)n1`, for which the ΔTm in assay [1] is 2.93 °C; on Peregrin (Homo sapiens), -0.93 °C.
Take `CNC(=O)c1cc(C(=O)N[C@H]2[C@@H]3COC[C@@H]32)cc2c1O[C@@H](CF)[C@@H]2c1ccccc1`: the ΔTm in assay [1] was 0.48 °C; on Peregrin (Homo sapiens) it was -1.16 °C.
Taken in the same sequence, the figures for `COc1cc(-c2cncc(-c3ccc(N4CCN(C(C)C)CC4)cc3)c2C)cc(F)c1C(N)=O` were 0.64 °C and -1.51 °C.
Take `COc1cnccc1Nc1nc(-c2nn(Cc3c(F)cc(OCCO)cc3F)c3ccccc23)ncc1OC`: the values for the ΔTm (in assay [1]; on Peregrin (Homo sapiens)) were -7.58 °C and -6.89 °C, respectively.
Regarding `CC(=O)N1CCC(c2ccc(C(=O)NC3=NCCN3)cc2C(F)(F)F)CC1`, the shift in melting temperature (ΔTm) in assay [1] is 0.6 °C; at Peregrin (Homo sapiens), -1.55 °C.
Take `Cc1cccc(CC(=O)N2CCc3c2ccc(-c2cn(C)c4ncnc(N)c24)c3F)n1`: the results for the ΔTm (in assay [1]; at Peregrin (Homo sapiens)) were -0.88 °C and -2.12 °C, respectively.
For `CNc1[nH]c(Nc2ccc(C(=O)N3CCOCC3)cc2OC)nc2ncc(Cl)c1-2`, the ΔTm in assay [1] was 0.62 °C; on Peregrin (Homo sapiens), -1.81 °C.
On to `N=C(N)NCCC[C@H](NC(=O)CC1(CC(=O)N2CCN(C3c4ccccc4NC(=O)c4ccccc43)CC2)CCCC1)C(=O)NCCn1c(=O)n(-c2ccccc2)n(-c2ccccc2)c1=O` (stereo not given in full), for which the ΔTm in assay [1] was -5.62 °C; on Peregrin (Homo sapiens) it was -2.29 °C.
Take `CNC(=O)c1ccc2c(c1)ncn2-c1ccc(CC(=O)OC(C)(C)C)cc1`: the ΔTm in assay [1] was 4.13 °C; at Peregrin (Homo sapiens) it was -1.38 °C.

The values above are taken from ChEMBL document CHEMBL5308504, “Tm Shift (DSF) assay results for EUbOPEN Chemogenomics Library” (2023).
